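Cells were grown in 96-well plates and exposed to each compound for 48 hours at five concentrations; endpoints were interpolated linearly between bracketing concentrations, or set to the highest concentration if not reached. At the GI50, growth is halved.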 Activity calls are given as the source filed them. Cut-off read from the data, not from the text of the source: active = GI50 up to about 1.1 µM and inactive = higher.
Legend:
Assay in all cases: DTP human tumour cell line panel, 48 h
[1] = system: T47D
[2] = system: MOLT-4
[3] = system: NCI/ADR-RES
[4] = system: SF-268
[5] = system: M14
[6] = system: NCI-H23
[7] = system: TK-10
[8] = system: UACC-257
[9] = system: PC-3
[10] = system: SNB-19
[11] = system: OVCAR-8
[12] = system: SR
[13] = system: NCI-H522
[14] = system: LOX IMVI
[15] = system: BT-549
[16] = system: SK-OV-3
[17] = system: UO-31
[18] = system: COLO 205
[19] = system: NCI-H460
[20] = system: SK-MEL-5
[21] = system: U-251
[22] = system: OVCAR-4
[23] = system: HCT-116
[24] = system: MDA-N
[25] = system: OVCAR-5
[26] = system: HT-29
[27] = system: Hs-578T
[28] = system: K562
[29] = system: RXF 393
[30] = system: KM12
[31] = system: SW-620
[32] = system: HOP-62
[33] = system: OVCAR-3
[34] = system: MDA-MB-435
[35] = system: SN12C
[36] = system: SF-295
[37] = system: CCRF-CEM
[38] = system: A549
[39] = system: UACC-62
[40] = system: SK-MEL-2
[41] = system: A498
[42] = system: 786-0
[43] = system: MDA-MB-231
[44] = system: HOP-92
[45] = system: ACHN
[46] = system: SNB-75
[47] = system: EKVX
[48] = system: SF-539
[49] = system: DU-145
[50] = system: CAKI-1
[51] = system: HCT-15
[52] = system: HL-60
[53] = system: SK-MEL-28
[54] = system: Malme-3M
[55] = system: MCF7
[56] = system: NCI-H226
[57] = system: IGROV-1
[58] = system: RPMI-8226

## COc1cccc(N2C(=O)CS(=O)(=O)C2c2cccc(Oc3ccccc3)c2)c1 (stereo not drawn)
[1]
  GI50: 19.1 µM (inactive)
[2]
  GI50: 21.3 µM (inactive)
[3]
  GI50: 9.42 µM (inactive)
[4]
  GI50: 24.4 µM (inactive)
[5]
  GI50: 15.4 µM (inactive)
[6]
  GI50: 23.4 µM (inactive)
[7]
  GI50: 16.5 µM (inactive)
[8]
  GI50: 15.3 µM (inactive)
[9]
  GI50: 9.98 µM (inactive)
[10]
  GI50: 27.1 µM (inactive)
[11]
  GI50: 21.6 µM (inactive)
[12]
  GI50: 3.13 µM (inactive)
[13]
  GI50: 6.53 µM (inactive)
[14]
  GI50: 17.1 µM (inactive)
[15]
  GI50: 20.1 µM (inactive)
[16]
  GI50: 38 µM (inactive)
[17]
  GI50: 34.4 µM (inactive)
[18]
  GI50: 6 µM (inactive)
[19]
  GI50: 13.6 µM (inactive)
[20]
  GI50: 7.11 µM (inactive)
[21]
  GI50: 16.7 µM (inactive)
[22]
  GI50: 28.6 µM (inactive)
[23]
  GI50: 11.1 µM (inactive)
[24]
  GI50: 2.38 µM (inactive)
[25]
  GI50: 34 µM (inactive)
[26]
  GI50: 13.1 µM (inactive)
[27]
  GI50: 21.8 µM (inactive)
[28]
  GI50: 3.6 µM (inactive)
[29]
  GI50: 16.5 µM (inactive)
[30]
  GI50: 7.67 µM (inactive)
[31]
  GI50: 15.6 µM (inactive)
[32]
  GI50: 25.2 µM (inactive)
[33]
  GI50: 19.5 µM (inactive)
[34]
  GI50: 3.56 µM (inactive)
[35]
  GI50: 17.6 µM (inactive)
[36]
  GI50: 16 µM (inactive)
[37]
  GI50: 26.9 µM (inactive)
[38]
  GI50: 26.7 µM (inactive)
[39]
  GI50: 6.1 µM (inactive)
[40]
  GI50: 14.2 µM (inactive)
[41]
  GI50: 10.1 µM (inactive)
[42]
  GI50: 16.9 µM (inactive)
[43]
  GI50: 30.4 µM (inactive)
[44]
  GI50: 12.7 µM (inactive)
[45]
  GI50: 20.1 µM (inactive)
[46]
  GI50: 15.6 µM (inactive)
[47]
  GI50: 17 µM (inactive)
[48]
  GI50: 15.1 µM (inactive)
[49]
  GI50: 38.5 µM (inactive)
[50]
  GI50: 26.1 µM (inactive)
[51]
  GI50: 5.27 µM
[52]
  GI50: 11 µM (inactive)
[53]
  GI50: 34 µM (inactive)
[54]
  GI50: 15.9 µM (inactive)
[55]
  GI50: 3.04 µM (inactive)
[56]
  GI50: 19.1 µM (inactive)

## Cn1c(=O)c2[nH]c(C3CC(=O)CC(c4nc5c([nH]4)c(=O)n(C)c(=O)n5C)N3)nc2n(C)c1=O (stereo not drawn)
[1]
  GI50: > 100 µM (inactive)
[2]
  GI50: 71.3 µM (inactive)
[3]
  GI50: > 100 µM (inactive)
[57]
  GI50: > 100 µM (inactive)
[4]
  GI50: > 100 µM (inactive)
[5]
  GI50: > 100 µM (inactive)
[6]
  GI50: > 100 µM (inactive)
[7]
  GI50: > 100 µM (inactive)
[8]
  GI50: > 100 µM (inactive)
[9]
  GI50: > 100 µM (inactive)
[10]
  GI50: > 100 µM (inactive)
[11]
  GI50: > 100 µM (inactive)
[12]
  GI50: 95.1 µM (inactive)
[13]
  GI50: > 100 µM (inactive)
[14]
  GI50: > 100 µM (inactive)
[15]
  GI50: > 100 µM (inactive)
[16]
  GI50: > 100 µM (inactive)
[17]
  GI50: > 100 µM (inactive)
[18]
  GI50: 97.7 µM (inactive)
[19]
  GI50: > 100 µM (inactive)
[20]
  GI50: > 100 µM (inactive)
[21]
  GI50: 91 µM (inactive)
[22]
  GI50: > 100 µM (inactive)
[23]
  GI50: > 100 µM (inactive)
[24]
  GI50: > 100 µM (inactive)
[25]
  GI50: > 100 µM (inactive)
[26]
  GI50: > 100 µM (inactive)
[27]
  GI50: > 100 µM (inactive)
[28]
  GI50: 72.8 µM (inactive)
[29]
  GI50: > 100 µM (inactive)
[30]
  GI50: > 100 µM (inactive)
[31]
  GI50: > 100 µM (inactive)
[32]
  GI50: > 100 µM (inactive)
[33]
  GI50: > 100 µM (inactive)
[34]
  GI50: > 100 µM (inactive)
[35]
  GI50: > 100 µM (inactive)
[36]
  GI50: > 100 µM (inactive)
[37]
  GI50: 38.3 µM (inactive)
[38]
  GI50: > 100 µM (inactive)
[39]
  GI50: > 100 µM (inactive)
[40]
  GI50: > 100 µM (inactive)
[41]
  GI50: > 100 µM (inactive)
[42]
  GI50: > 100 µM (inactive)
[43]
  GI50: > 100 µM (inactive)
[45]
  GI50: > 100 µM (inactive)
[46]
  GI50: > 100 µM (inactive)
[47]
  GI50: > 100 µM (inactive)
[48]
  GI50: > 100 µM (inactive)
[49]
  GI50: > 100 µM (inactive)
[50]
  GI50: > 100 µM (inactive)
[51]
  GI50: > 100 µM
[52]
  GI50: > 100 µM (inactive)
[58]
  GI50: > 100 µM (inactive)
[53]
  GI50: > 100 µM (inactive)
[54]
  GI50: > 100 µM (inactive)
[55]
  GI50: 71.3 µM (inactive)
[56]
  GI50: > 100 µM (inactive)

Reference: ChEMBL document CHEMBL1201862, “PubChem BioAssay data set” (2004)
